What was measured:
glycogen phosphorylase = experiment: Glycogen phosphorylase assay; format: biochemical; settings: words, no concentration
[1] = system: α-D-glucosidase (Bacillus); settings: typical DNJ inhibitory activity shown for reference, in words; cited from earlier work
α-D-glucosidase (rice) = target: T1, α-D-glucosidase (rice) (Oryza sativa subsp. japonica, UniProt Q653V7); settings: typical DNJ inhibitory activity shown for reference, in words; cited from earlier work
T1 construct: purchased Sigma-Aldrich
T1 sequence (Q653V7 34-885): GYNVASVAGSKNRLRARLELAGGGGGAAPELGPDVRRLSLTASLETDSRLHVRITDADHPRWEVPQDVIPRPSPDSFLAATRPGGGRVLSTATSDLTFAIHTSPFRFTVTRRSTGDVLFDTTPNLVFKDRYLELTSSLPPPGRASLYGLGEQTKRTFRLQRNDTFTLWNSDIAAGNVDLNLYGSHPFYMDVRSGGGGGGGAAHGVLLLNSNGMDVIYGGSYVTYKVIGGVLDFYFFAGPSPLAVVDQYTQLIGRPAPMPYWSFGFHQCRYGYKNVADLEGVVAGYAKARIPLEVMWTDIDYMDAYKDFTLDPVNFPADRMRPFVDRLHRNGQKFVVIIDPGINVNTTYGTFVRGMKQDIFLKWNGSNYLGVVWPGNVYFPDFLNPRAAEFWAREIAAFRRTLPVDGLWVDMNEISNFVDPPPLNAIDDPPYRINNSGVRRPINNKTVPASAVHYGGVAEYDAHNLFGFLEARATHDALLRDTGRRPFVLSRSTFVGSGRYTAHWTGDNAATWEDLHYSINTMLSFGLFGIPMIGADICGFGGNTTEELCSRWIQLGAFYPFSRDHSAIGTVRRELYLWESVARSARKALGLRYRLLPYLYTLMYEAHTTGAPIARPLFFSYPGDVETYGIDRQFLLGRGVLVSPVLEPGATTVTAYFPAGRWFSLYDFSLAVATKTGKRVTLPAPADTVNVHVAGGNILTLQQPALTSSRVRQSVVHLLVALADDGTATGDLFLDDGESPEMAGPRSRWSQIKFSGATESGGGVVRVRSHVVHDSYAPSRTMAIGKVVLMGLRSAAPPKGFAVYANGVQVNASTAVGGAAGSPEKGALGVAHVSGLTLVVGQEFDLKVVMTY

[2] = target: T2, β-D-galactosidase (bovine) (Bos taurus, UniProt Q58D55); set-up: key: NI = no inhibition; settings: typical DNJ inhibitory activity shown for reference, in words; cited from earlier work
T2 construct: purchased Sigma-Aldrich
T2 sequence (Q58D55 28-653): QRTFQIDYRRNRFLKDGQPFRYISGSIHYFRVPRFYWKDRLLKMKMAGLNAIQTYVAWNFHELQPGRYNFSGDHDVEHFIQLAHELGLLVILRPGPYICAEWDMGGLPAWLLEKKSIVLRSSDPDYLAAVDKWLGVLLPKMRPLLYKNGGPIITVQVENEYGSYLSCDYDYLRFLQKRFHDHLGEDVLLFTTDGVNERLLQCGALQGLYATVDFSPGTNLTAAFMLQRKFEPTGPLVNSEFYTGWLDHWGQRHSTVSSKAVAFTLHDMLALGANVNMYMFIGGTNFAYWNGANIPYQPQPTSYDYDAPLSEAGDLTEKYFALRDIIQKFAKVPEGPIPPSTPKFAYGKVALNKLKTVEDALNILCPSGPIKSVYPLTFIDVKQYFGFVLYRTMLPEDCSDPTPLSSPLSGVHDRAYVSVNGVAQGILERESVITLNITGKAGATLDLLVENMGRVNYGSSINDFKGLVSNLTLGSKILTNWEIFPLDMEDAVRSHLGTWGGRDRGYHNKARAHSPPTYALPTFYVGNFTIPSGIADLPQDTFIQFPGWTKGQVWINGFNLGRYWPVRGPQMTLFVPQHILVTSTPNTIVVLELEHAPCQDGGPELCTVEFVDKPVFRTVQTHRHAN

α-L-fucosidase (bovine) = target: T3, α-L-fucosidase (bovine) (Bos taurus, UniProt Q2KIM0); set-up: key: NI = no inhibition; settings: typical DNJ inhibitory activity shown for reference, in words; cited from earlier work
T3 construct: purchased Sigma-Aldrich
T3 sequence (Q2KIM0 23-468): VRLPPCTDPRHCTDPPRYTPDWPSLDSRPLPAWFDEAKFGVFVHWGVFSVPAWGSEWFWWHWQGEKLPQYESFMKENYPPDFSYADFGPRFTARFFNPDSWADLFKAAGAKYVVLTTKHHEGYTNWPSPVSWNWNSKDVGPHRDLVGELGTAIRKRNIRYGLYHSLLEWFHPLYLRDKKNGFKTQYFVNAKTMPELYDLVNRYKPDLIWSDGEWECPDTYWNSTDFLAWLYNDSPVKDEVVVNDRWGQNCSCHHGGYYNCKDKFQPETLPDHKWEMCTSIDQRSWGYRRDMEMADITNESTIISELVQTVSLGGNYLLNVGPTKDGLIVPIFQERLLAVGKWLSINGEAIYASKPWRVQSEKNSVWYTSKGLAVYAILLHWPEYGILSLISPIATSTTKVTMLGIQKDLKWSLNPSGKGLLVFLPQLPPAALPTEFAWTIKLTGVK

[3] = target: T4, α-D-mannosidase (Jack bean) (Canavalia ensiformis, UniProt C0HJB3); settings: typical DNJ inhibitory activity shown for reference, in words; cited from earlier work
T4 construct: purchased Sigma-Aldrich
T4 sequence (C0HJB3 1-562 limits assumed): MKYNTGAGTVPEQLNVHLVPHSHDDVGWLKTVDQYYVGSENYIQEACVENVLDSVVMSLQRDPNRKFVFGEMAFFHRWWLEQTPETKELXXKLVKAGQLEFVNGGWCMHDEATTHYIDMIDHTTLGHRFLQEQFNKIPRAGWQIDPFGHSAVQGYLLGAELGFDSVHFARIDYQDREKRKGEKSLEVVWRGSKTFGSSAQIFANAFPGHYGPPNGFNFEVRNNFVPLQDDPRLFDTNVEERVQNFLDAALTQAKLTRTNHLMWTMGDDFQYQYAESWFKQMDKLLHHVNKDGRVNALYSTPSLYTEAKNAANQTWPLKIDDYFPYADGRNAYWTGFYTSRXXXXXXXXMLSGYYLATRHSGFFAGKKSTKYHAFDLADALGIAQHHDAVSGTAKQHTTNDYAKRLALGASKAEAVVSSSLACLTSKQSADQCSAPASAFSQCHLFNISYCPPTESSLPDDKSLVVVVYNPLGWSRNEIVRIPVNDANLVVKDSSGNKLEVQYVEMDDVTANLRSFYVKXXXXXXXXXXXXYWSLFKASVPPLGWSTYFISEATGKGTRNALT

[4] = system: β-D-mannosidase Cellulomonas fimi; set-up: key: NI = no inhibition; settings: typical DNJ inhibitory activity shown for reference, in words; cited from earlier work
[5] = system: naringinase (P. decumbens); set-up: key: NI = no inhibition; settings: typical DNJ inhibitory activity shown for reference, in words; cited from earlier work
[6] = system: N-acetyl-β-D-gluc (Bovine kidney); set-up: key: NI = no inhibition; settings: typical DNJ inhibitory activity shown for reference, in words; cited from earlier work
[7] = system: N-acetyl-β-D-gluc (Jack bean); set-up: key: NI = no inhibition; settings: typical DNJ inhibitory activity shown for reference, in words; cited from earlier work
[8] = target: T5, amyloglucosidase (A. niger) (Aspergillus niger, UniProt P69328); set-up: key: NI = no inhibition; settings: typical DNJ inhibitory activity shown for reference, in words; cited from earlier work
T5 construct: purchased Sigma-Aldrich
T5 sequence (P69328 25-640): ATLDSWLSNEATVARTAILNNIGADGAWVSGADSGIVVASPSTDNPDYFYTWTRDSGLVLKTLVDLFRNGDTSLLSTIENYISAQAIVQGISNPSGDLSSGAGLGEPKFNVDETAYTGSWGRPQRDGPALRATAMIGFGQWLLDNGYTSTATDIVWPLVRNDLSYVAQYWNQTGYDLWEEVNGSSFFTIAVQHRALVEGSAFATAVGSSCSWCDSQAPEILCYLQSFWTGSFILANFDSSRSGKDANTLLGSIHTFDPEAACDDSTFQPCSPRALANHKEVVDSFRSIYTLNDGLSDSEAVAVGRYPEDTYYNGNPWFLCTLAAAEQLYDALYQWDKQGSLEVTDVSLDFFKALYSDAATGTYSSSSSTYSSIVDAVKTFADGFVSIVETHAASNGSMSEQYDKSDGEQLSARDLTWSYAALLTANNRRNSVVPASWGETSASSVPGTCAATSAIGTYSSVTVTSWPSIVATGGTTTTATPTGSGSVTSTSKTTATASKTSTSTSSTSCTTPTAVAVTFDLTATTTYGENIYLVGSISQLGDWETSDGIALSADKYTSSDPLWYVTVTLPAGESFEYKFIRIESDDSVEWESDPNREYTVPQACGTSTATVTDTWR

[9] = target: T6, β-glucuronidase (bovine liver) (Bos taurus, UniProt A3KMY8); set-up: key: NI = no inhibition; settings: typical DNJ inhibitory activity shown for reference, in words; cited from earlier work
T6 construct: purchased Sigma-Aldrich; host or cells: bovine liver
T6 sequence (A3KMY8 1-652): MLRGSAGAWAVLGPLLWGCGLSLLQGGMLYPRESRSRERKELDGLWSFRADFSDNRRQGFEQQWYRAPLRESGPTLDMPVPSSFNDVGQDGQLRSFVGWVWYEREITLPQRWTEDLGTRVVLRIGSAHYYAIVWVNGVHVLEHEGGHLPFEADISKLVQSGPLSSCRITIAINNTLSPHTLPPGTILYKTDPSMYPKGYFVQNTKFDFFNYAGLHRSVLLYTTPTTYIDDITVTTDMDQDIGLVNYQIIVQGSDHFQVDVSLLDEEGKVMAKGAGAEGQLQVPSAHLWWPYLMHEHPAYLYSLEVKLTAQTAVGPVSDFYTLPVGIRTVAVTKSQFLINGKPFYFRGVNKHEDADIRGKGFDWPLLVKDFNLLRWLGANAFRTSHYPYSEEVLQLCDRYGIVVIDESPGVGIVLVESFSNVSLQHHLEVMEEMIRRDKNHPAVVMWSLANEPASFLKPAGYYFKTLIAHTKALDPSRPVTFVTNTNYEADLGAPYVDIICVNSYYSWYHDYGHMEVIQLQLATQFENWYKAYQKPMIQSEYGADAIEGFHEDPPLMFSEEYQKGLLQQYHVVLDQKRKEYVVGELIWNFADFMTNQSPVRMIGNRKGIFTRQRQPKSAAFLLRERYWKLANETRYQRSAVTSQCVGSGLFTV

OC[C@H]1NC[C@H](O)[C@@H](O)[C@@H]1O [DNJ, 1 deoxynojirmycin]
NI: β-D-gal bovine, typical DNJ inhibitory activity [2] | α-L-fuc bovine, typical DNJ inhibitory activity (α-L-fucosidase (bovine)) | β-D-man Cellulomonas, typical DNJ inhibitory activity [4] | naringinase Penecillium, typical DNJ inhibitory activity [5] | N-acetyl-β-D-gluc (Bovine kidney, typical DNJ inhibitory activity) [6] | N-acetyl-β-D-gluc (Jack bean), typical DNJ inhibitory activity [7] | amyloglucosidase (A. niger), typical DNJ inhibitory activity [8] | β-glucuronidase (bovine liver), typical DNJ inhibitory activity [9]
weak: α-D-man Jack bean, typical DNJ inhibitory activity [3]
potent: α-D-glu Bacillus, typical DNJ inhibitory activity [1] | α-D-glu rice, typical DNJ inhibitory activity (α-D-glucosidase (rice))
do not inhibit: glycogen phosphorylase inhibition (glycogen phosphorylase)

Reference: patent publication US11484561B2, “Morus extracts rich in N-acids of imino sugars and or pipecolic acids” (Phynova Limited, priority 2011, dated 2022)
